Data: US7884124B2, “Fluoro-substituted inhibitors of D-amino acid oxidase” (Sepracor Inc., priority 2006, dated 2011)

Assays:
C57BL/6 male mice = test: Contextual fear conditioning (freezing 24 hours after training); format: in vivo
Description: Young-adult C57BL/6 male mice were used. Mice were received at 6-7 weeks of age. Upon arrival, mice were assigned unique identification numbers (tail marked) and were group housed in polycarbonate cages with filter tops. All mice were acclimated to the colony room for at least four weeks prior to testing and were subsequently tested at an average age of 10-12 weeks of age. During the period of acclimation, mice were examined on a regular basis, handled, and weighed to assure adequate health and suitability. Mice were maintained on a 12/12 light/dark cycle with the light on at 6:00 a.m. The experiments were always conducted during the light phase of the cycle. The day before the initiation of the experiment, mice were housed single in individual cages and maintained so till the end of the experiment. Animals were randomly assigned across treatment groups. With the exception of testing times, the mice had ad lib access to food and water. Rolipram (0.1 mg/kg) was dissolved in 1% DMSO i.p. 20 min prior to training at a dose volume of 8 ml/kg. To assess contextual conditioning, we use a standardized contextual fear conditioning task originally developed for evaluation of memory in CREB mutant mice (Bourtchouladze, R. et al.; Cell 1994, 79, 59-68). Specifically, on the training day, the mouse is placed into the conditioning chamber for 2 minutes before the onset of the unconditioned stimulus (US), a 0.75 mA foot shock of 2 seconds duration. The US is repeated two times with a 1 min inter-trial interval between shocks. Training is performed using an automated software package. After the last training trial, a mouse is left in the conditioning chamber for another 30 sec and then placed back in its home cage. Contextual memory is tested 24 hours after training. The mouse is placed into the same training chamber and conditioning is assessed by scoring freezing behavior. Freezing is defined as the complete lack of movement in intervals of 5 seconds (Kim et al., 1993; Phillips & LeDoux, 1992; Bourtchouladze et al., 1994; 1998; Abel et al., 1997; Kogan et al., 1997). […]

Chung model rats = test: Chung model (L5 spinal nerve ligation), paw withdrawal threshold with von Frey hairs; format: in vivo, rat
Experimental: Adult male Sprague-Dawley rats, weighing 200-230 g at the time of surgery, were used. They were housed in groups of 4 in an air-conditioned room on a 12 h light/dark cycle. Food and water were available ad libitum. The animals were allowed to acclimatize to the experimental environment for three days by leaving them on a lifted metal mesh for at least 40 min. The baseline paw withdrawal threshold (PWT) was examined using a series of graduated von Frey hairs for 3 consecutive days before surgery and re-assessed on the 7th day after surgery and on the 11th to 14th day before drug dosing. The rat Chung model was prepared as described by Kim and Chung (1992). The rat was anaesthetized with 5% isoflurane mixed with oxygen (2 L per min) followed by an i.p. injection of sodium pentobarbitone at 50 mg/kg. The back was shaved and sterilized with 75% ethanol. The animal was placed in a prone position and a para-medial incision was made on the skin covering L4-6 level. The L5 spinal nerve was carefully isolated and tightly ligated with 6/0 silk suture. The wound was then closed in layers after a complete hemostasis. A single dose of antibiotics (Amoxipen 15 mg/rat, ip) was routinely given for prevention of infection after surgery. The animals were placed in a temperature controlled recovery chamber until fully awake before being returned to the home cage. The animals were placed in individual Perspex boxes on a raised metal mesh for at least 40 min before the test. Starting with the filament of lowest force, each filament was applied perpendicularly to the centre of the ventral surface of the paw until slightly bent for 6 seconds. If the animal withdrew or lifted the paw upon stimulation, then a hair with force immediately lower than that tested was used. If no response was observed, then a hair with force immediately higher was tested. The lowest amount of force required to induce reliable responses (positive in 3 out of 5 trials) was recorded as the value of PWT. Only those animals with significant allodynia (PWT≦3.5 g) were selected for drug dosing experiments. The rats in a neuropathic pain state were randomly divided into experimental groups: Vehicle group and 1 group had 8 rats and the gabapentin group had 9 rats. The drug test was carried out 12 to 14 days after surgery. Isotonic 50 mM phosphate buffer (PB), dosed orally at 3 mL/kg, served as the vehicle control. Gabapentin was dissolved in normal saline and given orally at 100 mg/kg. […] The PWT was assessed at 1, 3, 6 and 24 h following drug or vehicle administration. The animals were returned to their home cage for a break (about 30 min) between two neighboring testing time points. One-way analysis of variance (ANOVA) (SPSS software) was used for statistical analysis to compare different groups on the same time points. Paired Student-t test was used to compare different time points in the same group. The significance level was set at P<0.05.

## O=C(O)c1cc2occc2[nH]1 [Compound 11, 4H-furo[3,2-b]pyrrole-5-carboxylic acid]
C57BL/6 male mice; 10 mg/kg p.o. 2 hrs prior to training, vehicle 33.3%+/−5.1%, n=10
  Freezing 24 hours after training: 69.7%+/−3.0%
Chung model rats; oral dose of 10 mg/kg
  Effect on PWT: significantly elevated the PWT
  Time after dosing at which the effect on PWT reached a peak: 6 h
  Time after dosing at which the increase in PWT was first observed: 1 h

## COc1ccc(C2CNC(=O)C2)cc1OC1CCCC1 (stereo not shown) [Rolipram, reference compound]
C57BL/6 male mice; Rolipram 0.1 mg/kg i.p. 20 min prior to training, vehicle 27.2%+/−3.6%
  Freezing 24 hours after training: 44.4%+/−4.4%

## O=C(O)c1cc2sccc2[nH]1 [Compound 1, 4H-thieno[3,2-b]pyrrole-5-carboxylic acid]
C57BL/6 male mice; 10 mg/kg P.O.
  Activity in contextual fear conditioning: active
Chung model rats; 30 mg/kg orally, 1 hour after dosing, before dosing 1.25±0.18 g
  PWT, ipsilateral side: 2.50 ± 0.33 g
Chung model rats; 30 mg/kg orally, 1 hour after dosing, pre-drug level 8.80±0.13 g
  PWT, contralateral side: 8.15 ± 0.45 g
Chung model rats; 30 mg/kg orally, 3 hours after dosing, before dosing 1.25±0.18 g
  PWT, ipsilateral side: 4.44 ± 0.27 g
Chung model rats; 30 mg/kg orally, 3 hours after dosing, pre-drug level 8.80±0.13 g
  PWT, contralateral side: 8.90 ± 0.15 g
Chung model rats; 30 mg/kg orally, 6 hours after dosing, before dosing 1.25±0.18 g
  PWT, ipsilateral side: 5.71 ± 0.66 g
Chung model rats; 30 mg/kg orally, 6 hours after dosing, pre-drug level 8.80±0.13 g
  PWT, contralateral side: 9.70 ± 0.77 g
Chung model rats; 30 mg/kg orally, 24 hours after dosing, before dosing 1.25±0.18 g
  PWT, ipsilateral side: 1.90 ± 0.38 g
Chung model rats; 30 mg/kg orally, 24 hours after dosing, pre-drug level 8.80±0.13 g
  PWT, contralateral side: 8.35 ± 0.50 g
Chung model rats; 30 mg/kg orally, ipsilateral side
  Time after dosing at which the effect on PWT reached a peak: 6 h

## NCC1(CC(=O)O)CCCCC1 [Gabapentin, reference compound]
Chung model rats; gabapentin 100 mg/kg orally, 1 hour after dosing, before dosing 1.48±0.22 g
  PWT, ipsilateral side: 3.77 ± 0.42 g
Chung model rats; gabapentin 100 mg/kg orally, 1 hour after dosing, before dosing 9.67±0.68 g
  PWT, contralateral side: 10.11 ± 0.93 g
Chung model rats; gabapentin 100 mg/kg orally, 3 hours after dosing, before dosing 1.48±0.22 g
  PWT, ipsilateral side: 6.27 ± 0.76 g
Chung model rats; gabapentin 100 mg/kg orally, 3 hours after dosing, before dosing 9.67±0.68 g
  PWT, contralateral side: 10.11 ± 0.93 g
Chung model rats; gabapentin 100 mg/kg orally, 6 hours after dosing, before dosing 1.48±0.22 g
  PWT, ipsilateral side: 2.38 ± 0.29 g
Chung model rats; gabapentin 100 mg/kg orally, 6 hours after dosing, before dosing 9.67±0.68 g
  PWT, contralateral side: 8.29 ± 0.42 g
Chung model rats; gabapentin 100 mg/kg orally, 24 hours after dosing, before dosing 1.48±0.22 g
  PWT, ipsilateral side: 2.69 ± 0.60 g
Chung model rats; gabapentin 100 mg/kg orally, 24 hours after dosing, before dosing 9.67±0.68 g
  PWT, contralateral side: 9.40 ± 0.71 g
Chung model rats; gabapentin orally dosed at 100 mg/kg
  Time after dosing at which the effect on PWT reached a peak: 3 h
Chung model rats; gabapentin orally dosed at 100 mg/kg, positive control
  Effect on PWT: significantly increased the PWT
